# Read-outs that look alike come from different tables or passages of the source.
# Legend:
# Format in all cases: cell-based
# APOL1 = assay: RNA-seq of APOL1 expression in compound-treated primary human hepatocytes; conditions: for mrna remaining at 10 µM: Homo sapiens, Hepatocyte, 16 h, read-out: APOL mRNA linear fold change
# Protocol: (§1) Human hepatocytes were obtained from two donors from Massachusetts General Hospital, namely MGH54 and MGH63, and one donor from Lonza, namely HUM4111B. Cryopreserved hepatocytes were cultured in plating media for 16 hours, transferred to maintenance media for 4 hours. Cultured on serum-free media for 2 hours, then a compound was added. The hepatocytes were maintained on the serum-free media for 16 hours prior to gene expression analysis. Primary human hepatocytes were stored in the vapor phase of a liquid nitrogen freezer (about −130° C.).
# (§2) Human hepatocytes cultured as described above were plated in 24-well format, adding 375,000 cells per well in a volume of 500 ul plating medium. Four hours before treatment, cells were washed with PBS and the medium was changed to either: fresh maintenance medium (complete) or modified maintenance medium.
# (§3) Compound stocks were prepared at 1000× final concentration and added in a 2-step dilution to the medium to reduce risk of a compound precipitating out of solution when added to the cells, and to ensure reasonable pipetting volumes. One at a time, each compound was first diluted 10-fold in warm (about 37° C.) modified maintenance medium (initial dilution=ID), mixed by vortexing, and the ID was diluted 100-fold into the cell culture (e.g. 5.1 ul into 1 well of a 24-well plate containing 0.5 mL medium). The plate was mixed by carefully swirling and after all wells were treated and returned to the incubator overnight. If desired, separate plates/wells were treated with vehicle-only controls and/or positive controls. If using multi-well plates, controls were included on each plate. After about 18 hours, cells were harvested for further analysis, e.g., ChIP-seq, RNA-seq, ATAC-seq, etc.
# (§4) This protocol is a modified version of the following protocols: MagMAX mirVana Total RNA Isolation Kit User Guide (Applied Biosystems #MAN0011131 Rev B.0), NEBNext Poly(A) mRNA Magnetic Isolation Module (E7490), and NEBNext Ultra Directional RNA Library Prep Kit for Illumina (E7420) (New England Biosystems #E74901).
# (§5) The MagMAX mirVana kit instructions (the section titled “Isolate RNA from cells” on pages 14-17) were used for isolation of total RNA from cells in culture. Two hundred μl of Lysis Binding Mix was used per well of the multiwell plate containing adherent cells (usually a 24-well plate).
# (§6) For mRNA isolation and library prep, the NEBNext Poly(A) mRNA Magnetic Isolation Module and Directional Prep kit was used. RNA isolated from cells above was quantified, and prepared in […] of each sample in 50 μl of nuclease-free water. This protocol may be run in microfuge tubes or in a 96-well plate.
# (§7) All pass filter reads from each sample were mapped against the human genome (assembly GRCh38/GCA_000001405.15 “no alt” analysis set merged with hs38d1/GCA_000786075.2) using two pass mapping via STAR version 2.5.3a (alignment parameters alignIntronMin=20; alignIntronMax=1000000; outFilterMismatchNmax=999; outFilterMismatchNoverLmax=0.05; outFilterType=BySJout; outFilterMultimapNmax=20; alignSJoverhangMin=8; alignSJDBoverhangMin=1; alignMatesGapMax=1000000) (Dobin et al., Bioinformatics (2012) 29(1):15-21). Genomic alignments were converted to transcriptome alignments based on reference transcript annotations from the Human GENCODE Gene Set release 24 (Harrow et al., Genome Res. (2012) 22(9): 1760-1774). Using unique and multimapped transcriptomic alignments, gene-level abundance estimates were computed using RSEM version 1.3.0 (Li and Dewey, BMC Bioinformatics (2011) 12:323) in a strand-aware manner, and including confidence interval sampling calculations, to arrive at posterior mean estimates (PME) of abundances (counts and normalized FPKM—fragments per kilobase of exon per million mapped fragments) from the underlying Bayesian model. Standard QC were applied (read integrity, mapping statistics, library complexity, fragment bias) to remove unsatisfactory samples.
# SERPINC1 mRNA = assay: Quantitative PCR of SERPINC1 mRNA in primary human hepatocytes (Lonza Hu4282) treated with compounds; conditions: 72 h treatment, HU4282 primary human hepatocytes, relative to DMSO control (FIG. 7)
# MECP2 mRNA [1] = assay: MECP2 mRNA in primary human hepatocytes (donor 1, donor 2); conditions: human hepatocytes donor-2, average fold change
# Protocol: as §1, §2, §3
# Samples were amplified using Taqman probes from ThermoFisher.
# MECP2 mRNA [2] = assay: MECP2 mRNA in stellate cells; conditions: average fold change
# ANGPTL3 = assay: RNA-seq of ANGPTL3 expression in compound-treated primary human hepatocytes; conditions: additional compounds (Table 13), linear fold change
# Summary of the method: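 Cryopreserved primary human hepatocytes from three donors, plated at 375,000 cells/well, switched to complete or modified maintenance medium, then dosed with compound (stocks at 1000× final) for about 18 h. Poly(A) mRNA was sequenced directionally, mapped to GRCh38 with STAR, and gene-level abundance (counts, FPKM) estimated with RSEM against GENCODE 24.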
# FN1 = assay: RNA-seq of FN1 expression in compound-treated primary human hepatocytes; conditions: perturbed vs unperturbed, significance FPKM ≥1, log 2(fold change) ≥0.5, q-value ≤0.05
# Protocol: as §1, §2, §3, §4, §5, §6, §7
# UGT1A1 = assay: RNA-seq of UGT1A1 expression in compound-treated primary human hepatocytes
# Summary of the method: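 Cryopreserved primary human hepatocytes from three donors were plated in 24-well format, then treated with compound diluted from 1000× stocks in serum-free maintenance medium for about 16–18 h. Poly(A) RNA-seq log2 fold change was computed against vehicle/pan-experiment controls. Significance required FPKM ≥1, log2FC ≥0.5 and q ≤0.05.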
# LECT2 = assay: RNA-seq of LECT2 expression in compound-treated primary human hepatocytes
# Protocol: as §1, §2, §3, §4, §5, §6
# (§8) Standard QC were applied (read integrity, mapping statistics, library complexity, fragment bias) to remove unsatisfactory samples. […] Log 2 fold change and significance values were computed using PME count data (with replicates explicitly modeled versus pan-experiment controls), median ratio normalized, using maximum likelihood estimation rather than maximum a posteriori, and disabling the use of Cook's distance cutoff when determining acceptable adjusted p-values. […] RNA-seq signals were also normalized by read depth and visualized using the UCSC browser.
# (§9) To identify small molecules that modulate target gene expression, primary human hepatocytes were prepared as a monoculture, and at least one small molecule compound was applied to the cells.
# (§10) RNA-seq was performed to determine the effects of the compounds on the expression of the target genes in hepatocytes. Fold change was calculated by dividing the level of expression in the cell system that had been perturbed by the level of expression in an unperturbed system. Changes in expression having a p-value ≤0.05 were considered significant.
# Significance was defined as an FPKM ≥1, a log 2(fold change) ≥0.5, and a q-value of ≤0.05 for all targets except for CPOX.
# SLC37A4 = assay: RNA-seq of SLC37A4 expression in compound-treated primary human hepatocytes
# Protocol: as §1, §2, §3, §4, §5, §6, §7
# CPOX = assay: RNA-seq of CPOX expression in compound-treated primary human hepatocytes
# Protocol: as §1, §2, §3, §4, §5, §6, §8, §9, §10
# Significance was defined as an FPKM ≥0.5 a log 2(fold change) ≥0.3, and a q-value of ≤0.05.
compound,measurement,setting,value
"C[C@]12C=CC(=O)C=C1CC[C@@H]1[C@@H]2[C@@H](O)C[C@@]2(C)[C@H]1CC[C@]2(O)C(=O)CO [CPD447_Prednisolone, Prednisolone]",mrna remaining at 10 µM,"APOL1; RNAseq, 10 uM dose (Table 20)",65.5%
COc1ccc(-c2cc3c(C)nc(N)nc3n([C@H]3CC[C@H](OCCO)CC3)c2=O)cn1 [PF-04691502],APOL mRNA linear fold change,"APOL1; RNAseq, 10 uM dose (Table 20)",0.5141
same,SERPINC1 mRNA change in response to compound,SERPINC1 mRNA,dose dependent upregulation
same,Human hep donor-2 MECP2 (Avg_FC) 1 uM,MECP2 mRNA [1]; compound 1 uM,1.13
same,Human hep donor-2 MECP2 (Avg_FC) 10 uM,MECP2 mRNA [1]; compound 10 uM,1.88
same,Stellate MECP2 (Avg_FC) 1 uM,MECP2 mRNA [2]; compound 1 uM,1.27
same,Stellate MECP2 (Avg_FC) 10 uM,MECP2 mRNA [2]; compound 10 uM,2.78
same,ANGPTL3-LINEAR FOLD CHANGE,ANGPTL3,0.4506
C[C@@H](Oc1cc(-c2cnn(C3CCNCC3)c2)cnc1N)c1c(Cl)ccc(F)c1Cl [Crizotinib],APOL1 Fold Change (Log2),"APOL1; RNA-seq, primary human hepatocytes",−0.56 Log2
same,FN1 Fold Change (Log2),FN1,−1.45 Log2
same,UGT1A1 Fold Change (Log2),UGT1A1,1.18 Log2
C[C@]12C=CC(=O)C=C1CC[C@@H]1[C@@H]2C(=O)C[C@@]2(C)[C@H]1CC[C@]2(O)C(=O)CO [prednisone],LECT2 Fold Change (Log2),LECT2,−0.65 Log2
same,SLC37A4 Fold Change (Log2),SLC37A4,1.18 Log2
same,CPOX Fold change (Log2),CPOX,0.44 Log2
"CC[C@@H](CO)NC(=O)[C@@H]1C=C2c3cccc4[nH]cc(c34)C[C@H]2N(C)C1 [CPD388_Methylergonovine, Methylergonovine]",mrna remaining at 10 µM,APOL1,64.2%
"CC(C)C[C@H](NC(=O)[C@H](Cc1ccccc1)NC(=O)c1cnccn1)B(O)O [CPD569_Bortezomib (PS-341), Bortezomib]",mrna remaining at 10 µM,"APOL1; RNAseq, 10 uM dose (Table 20)",63.7%
O=C1NC(=O)/C(=C/c2ccc3nccc(-c4ccncc4)c3c2)S1 [GSK1059615],APOL mRNA linear fold change,"APOL1; RNAseq, 10 uM dose (Table 20)",0.5105
same,ANGPTL3-LINEAR FOLD CHANGE,ANGPTL3,0.1856
COc1cc(Nc2c(C#N)cnc3cc(OCCCN4CCN(C)CC4)c(OC)cc23)c(Cl)cc1Cl [Bosutinib],CPOX Fold change (Log2),CPOX,0.34 Log2
C[C@@H]1C[C@H]2[C@@H]3CCC4=CC(=O)C=C[C@]4(C)[C@@]3(F)[C@@H](O)C[C@]2(C)[C@@]1(O)C(=O)CO [Dexamethasone],SLC37A4 Fold Change (Log2),SLC37A4,0.66 Log2
[Cl][Co][Cl] [Cobalt chloride],SLC37A4 Fold Change (Log2),SLC37A4,1.09 Log2
same,CPOX Fold change (Log2),CPOX,0.49 Log2
"COc1cc(Nc2ncc(F)c(Nc3ccc4c(n3)N(COP(=O)(O)O)C(=O)C(C)(C)O4)n2)cc(OC)c1OC [R788 (fostamatinib disodium hexahydrate), fostamatinib disodium hexahydrate]",UGT1A1 Fold Change (Log2),UGT1A1,0.85 Log2
same,SLC37A4 Fold Change (Log2),SLC37A4,0.74 Log2
NCC(=O)Nc1ccc(-n2nc(C(F)(F)F)cc2-c2ccc3c(ccc4ccccc43)c2)cc1 [OSU-03012],FN1 Fold Change (Log2),FN1,−1.03 Log2
same,LECT2 Fold Change (Log2),LECT2,−0.77 Log2
same,ANGPTL3-LINEAR FOLD CHANGE,ANGPTL3,0.4965
O=Cc1c2[nH]c3ccccc3c2cc2[nH]c3ccccc3c12 [FICZ],UGT1A1 Fold Change (Log2),UGT1A1,2.62 Log2
same,CPOX Fold change (Log2),CPOX,0.44 Log2
same,ANGPTL3-LINEAR FOLD CHANGE,ANGPTL3,0.3231
IGF-1: IGF-1R activator,SLC37A4 Fold Change (Log2),SLC37A4,0.60 Log2

# — patent publication US20210161997A1, “TREATING DISEASES VIA TARGETED MODULATION OF GENE SIGNALING NETWORKS” (Camp4 Therapeutics Corporation, priority 2018, published 2021)
